The text below walks through data of US10098827B2 (L'OREAL, priority 2014, dated 2018).

Molecules are shown by their SMILES.

For this assay, the target named is T1, human leukocyte elastase (HLE) (Homo sapiens, UniProt P08246).
T1 construct: CEREP (contract assay)
T1 sequence (P08246 30-267): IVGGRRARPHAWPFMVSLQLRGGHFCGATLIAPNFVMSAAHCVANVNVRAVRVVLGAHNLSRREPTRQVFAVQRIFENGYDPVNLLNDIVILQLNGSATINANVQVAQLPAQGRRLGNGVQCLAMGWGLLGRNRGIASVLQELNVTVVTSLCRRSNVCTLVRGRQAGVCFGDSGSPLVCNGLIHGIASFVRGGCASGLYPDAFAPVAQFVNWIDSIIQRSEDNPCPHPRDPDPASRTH
In words: Human Elastase Assay test (CEREP catalog), photometry. The assay is classed as biochemical. To be noted: for inhibition at 1000 µM: compound at 1 mM, reference substrate MeOSAAPV-pNa at 0.1 mM, photometry, read-out: Elastase inhibition activity (conc 1 mM); for IC50: human elastase, read-out: IC50 (concentration that produces 50% inhibition of the human elastase activity). On the procedure:
The molecules have been evaluated in vitro on a Human Elastase Assay test, available in the CEREP catalog.
The results are expressed as a percentage of activity versus a specific control (activity measured with compounds of the invention/control activity without the compound of the invention)×100.
The control is the enzymatic activity of human leukocyte elastase (HLE) on a reference substrate (MeOSAAPV-pNa at 0.1 mM).
The detection method used is photometry.
This method is described in the literature: Adeyemi et al 1990, J. Pharm. Pharmacol. 42, 487-490.
The concentration that produces 50% inhibition of the human elastase activity (IC50) was measured.

Consider `COC(=O)c1cc(C(=O)OC)cc(N(C(C)=O)C(C(=O)NCC(=O)O)C(C)C)c1` (centres unmarked) [Compound 6, N-ACETYL-N-[3,5-BIS(METHOXYCARBOXY)PHENYL]VALYLGLYCINE], for which the inhibition at 1000 µM was 65%.
On the same count and under the same terms, the result for `CCOC(=O)c1cc(N(C(C)=O)[C@H](C(=O)NCC(=O)O)C(C)C)ccc1O` [Compound 5, N-ACETYL-N-[3-(ETHOXYCARBONYL)-4-HYDROXYPHENYL]VALYLGLYCINE] reads 62%.
`CC(=O)N(c1cccc(C#N)c1)C(C(=O)NCC(=O)O)C(C)C` (centres unmarked) [Compound 4]: the inhibition at 1000 µM is 35% and the IC50 stood at 5.6 mM. In addition, for the setting “comparison in words”, the “effectiveness for inhibiting elastase activity compared with the compound of the prior art” value is given as “clearly more effective than the compound of the prior art”.
For `CC(=O)N(c1cc(C(=O)O)cc(C(=O)O)c1)[C@H](C(=O)NCC(=O)O)C(C)C` [Compound 3, N-ACETYL-N-(3,5-DICARBOXYPHENYL)VALYLGLYCINE], the inhibition at 1000 µM was 98%.
Take `CC(=O)N(c1ccc(C(=O)O)c(C(=O)O)c1)[C@H](C(=O)NCC(=O)O)C(C)C` [Compound 2, N-ACETYL-N-(3,4-DICARBOXYPHENYL)VALYLGLYCINE]: the inhibition at 1000 µM is 98%.
For `CC(=O)N(c1ccc(C(=O)O)cc1)C(C(=O)NCC(=O)O)C(C)C` (centres unmarked) [Compound 8], the inhibition at 1000 µM was 88%.
For the compound `CC(=O)N(c1cccc(C(F)(F)F)c1)C(C(=O)NCC(=O)O)C(C)C` (centres unmarked) [Z, reference compound], the IC50 worked out at 6.38 mM.
Consider `CC(=O)N(c1ccc(C(=O)O)c(O)c1)[C@H](C(=O)NCC(=O)O)C(C)C` [Compound 1, N-ACETYL-N-(4-CARBOXY-3-HYDROXYPHENYL)VALYLGLYCINE], for which the inhibition at 1000 µM was found to be 98%.
Regarding `CC(=O)N(c1cccc(O)c1)[C@H](C(=O)NCC(=O)O)C(C)C` [Compound 7, N-ACETYL-N-(3-HYDROXYPHENYL)VALYLGLYCINE], the inhibition at 1000 µM was 62%.

Usually inhibition stands for the relative decrease from the control value, in per cent.
